Assay results published in paper PMC5769330, “Flaxseed-enriched diets change milk concentration of the antimicrobial danofloxacin in sheep” (BMC Veterinary Research, 2018).
Structures can show the parent of a compound that is named as a salt. Where two headings read alike, the source gives them in different places. Blank lines part the entries; values can stand above or below the compound they belong to.

Key:
[1] = Enterolignans and conjugates in plasma and milk of sheep fed flaxseed-enriched diets (UPLC-QTOF-MS); assay type: in vivo; details: qualitative
Protocol: Eighteen lactating […] (3-4 months in lactation and weighing 66-105 kg) were used and milked twice daily. The animals were parasite-free, and drinking water was available ad libitum. The experimental design was performed with animals stratified according to milk production and number of days post-partum, and then randomly distributed in the experimental groups. The animals were divided into 3 diet groups of 6 animals each. One group of sheep was fed a standard diet, a second group was fed a lignan-enriched diet containing 10% whole flaxseed (Nutricor SL, Leon, Spain) for 2 weeks, and a third group was fed a lignan-enriched diet containing 15% whole flaxseed (Nutricor SL) also for 2 weeks (diet composition is shown in Table 1). Flaxseed amounts and duration of treatment were chosen based on previous studies on cows. Whole flaxseed composition included 20.2% of crude protein, 13.1% of crude fiber and 28.5% of ether extract. All sheep were fed ad libitum twice per day after each milking (09.00 and 18.00 h). Feed intake was not affected by the different experimental diets. […] [29]. The dry residue was dissolved in methanol and filtered (0.22 μm) prior to injection into the ultra-performance liquid chromatography quadrupole time-of-flight mass spectrometry (UPLC-QTOF-MS) equipment. Analyses were developed using an Agilent 1290 Infinity LC system coupled to a 6550 Accurate-Mass QTOF (Agilent Technologies, Waldbronn, Germany) and using an electrospray interface (Jet Stream Technology). Analytical conditions were as previously described with some modifications. Briefly, 5 μL of sample was injected onto a reverse phase Poroshell 120 EC-C18 column (3 × 100 mm, 2.7 μm) (Agilent Technologies) operating at 30 °C. […] The electrospray interface parameters were as follows: gas temperature, 280 °C; drying gas flow, 9 L/min; nebulizer pressure, 35 psi; sheath gas temperature, 400 °C; sheath gas flow, 12 L/min. Spectra were acquired in the m/z range from 100 to 1100 in negative mode and fragmentor voltage was 100 V. Data were processed using Mass Hunter Qualitative Analysis software (version B.06.00 Agilent Technologies). A target screening strategy was applied to plasma and milk samples for the qualitative screening of possible enterolignan-related metabolites. A list of target compounds (60 possible metabolites) covering different phase I and phase II metabolites of parent compound and microbial metabolites was sought in all the samples after MS full-acquisition. Screening was based on mass filtering at the exact mass of the studied compound using narrow mass extraction windows (0.01 m/z). Identification was possible from the valuable information given in QTOF-MS acquisition mode which provides possible molecular formulae for the compounds based on accurate mass and isotopic pattern (Table 2). Additionally, a targeted MS/MS experiment offered fragmentation information for greater reliability in the compound identification process. When possible, direct comparison with authentic standards was performed. Quantification of enterolactone and enterodiol was determined by interpolation in the calibration curve obtained from their own available standards. These metabolites were quantified in MS by peak area integration of their extracted ion chromatograms. Calibration curves were linear from the limit of quantification (LOQ) to 500 nmol/L. […] In the case of conjugated metabolites accurate quantification was not possible due to the absence of available standards and so only qualitative results are provided.

[2] = Milk pharmacokinetics (secretion into milk) of danofloxacin after i.m. administration to lactating sheep fed control or flaxseed-enriched diets; assay type: in vivo; details: 1.25 mg/kg i.m.; for Kp / AUC(0-t) / AUC(0-inf) / Cmax / MRT / Tmax: female, Assaf, sheep, 1.25 mg/kg, mean ± SD, n = 6; for Kp: milk and plasma, intramuscular, read-out: AUC 0–24 milk/plasma; for AUC(0-t) / AUC(0-inf) / Cmax / MRT / Tmax: milk, im; for AUC(0-t): read-out: AUC 0–24
Protocol: (§1) Eighteen lactating […] (3-4 months in lactation and weighing 66-105 kg) were used and milked twice daily. The animals were parasite-free, and drinking water was available ad libitum. The experimental design was performed with animals stratified according to milk production and number of days post-partum, and then randomly distributed in the experimental groups. The animals were divided into 3 diet groups of 6 animals each. One group of sheep was fed a standard diet, a second group was fed a lignan-enriched diet containing 10% whole flaxseed (Nutricor SL, Leon, Spain) for 2 weeks, and a third group was fed a lignan-enriched diet containing 15% whole flaxseed (Nutricor SL) also for 2 weeks (diet composition is shown in Table 1). Flaxseed amounts and duration of treatment were chosen based on previous studies on cows. Whole flaxseed composition included 20.2% of crude protein, 13.1% of crude fiber and 28.5% of ether extract. All sheep were fed ad libitum twice per day after each milking (09.00 and 18.00 h). Feed intake was not affected by the different experimental diets. After 2 weeks on the experimental diets, animals in all groups received a single therapeutic dose (1.25 mg/kg, i.m.) of danofloxacin (Advocin 2.5%, Pfizer, Cedex, France). Blood samples (5 mL) were collected from the jugular vein in commercial blood collection tubes (Vacutainer, 10 mL; […] The pharmacokinetic schedule was based on previous studies from our group. […] A complete evacuation of the udder was carried out at each sampling to avoid any dilution effect. Samples were stored at - 20 °C until analysis. Conditions for HPLC analysis of danofloxacin concentrations in plasma and milk were modified according to previously published methods. […] To each 100 μL aliquot of sample, 600 μL of chloroform was added. […] The residue was reconstituted in 100 μL of methanol and injected into the HPLC system. The system consisted of a Waters 600 pump, a Waters 717 plus autosampler, and a Waters 486 fluorescence detector (Waters Corporation, Milford, MA). […] The mobile phase consisted of 25 mM orthophosphoric acid supplemented with 0.1% triethylamine (pH 3.0): acetonitrile (80:20 v/v) at a flow rate of 1.6 mL/min. Sample detection was performed by fluorescence detection at 338 nm (excitation) and 425 nm (emission). Integration was carried out using MILLENNIUM 32 software (Waters). […] Correlation coefficients (r) for danofloxacin ranged between 0.998 and 0.984 for the calibration curves in plasma and milk curves respectively. LOQ were 1.9 ng/mL for sheep plasma and 19 ng/mL for sheep milk. Peak concentration (Cmax) and time-peak concentrations (Tmax) were read from the plotted concentration-time curve for each animal. The area under the plasma concentration-time curves (AUC) was calculated using the linear trapezoidal rule. Mean residence time (MRT) was calculated by the linear trapezoidal rule with extrapolation to time infinity, using the formula: MRT = AUMC/AUC, where AUMC is the mean area under the first moment curve. These calculations were made with a computer program (PK solution 2.0, Summit Research Services, Ashland, OH) and determined by non-compartmental analyses.

[3] = Plasma pharmacokinetics of danofloxacin after i.m. administration to lactating sheep fed control or flaxseed-enriched diets; assay type: in vivo; details: female, Assaf, im, 1.25 mg/kg, 1.25 mg/kg i.m., mean ± SD; for AUC(0-inf) / Cmax / MRT / Tmax: n = 6; for AUC(0-t): n = 6, read-out: AUC 0–24
Protocol: as §1

[4] = effect of isoflavones present in soy; cited from earlier work
[5] = sheep fed flaxseed-enriched diets vs. control diet

Compound: O=C(O)[C@H]1O[C@@H](Oc2cccc(C[C@@H](CO)[C@H](CO)Cc3cccc(O)c3)c2)[C@H](O)[C@@H](O)[C@@H]1O [Enterodiol- glucuronide]
Localization (matrix in which the compound was identified) [1]: Plasma

Compound: O=S(=O)(O)Oc1cccc(C[C@@H](CO)[C@H](CO)Cc2cccc(O)c2)c1 [Enterodiol- sulfate]
Localization (matrix in which the compound was identified) [1]: Plasma

Compound: OC[C@H](Cc1cccc(O)c1)[C@H](CO)Cc1cccc(O)c1 [Enterodiol]
Localization (matrix in which the compound was identified) [1]: Plasma, milk

Compound: O=C1OC[C@H](Cc2cccc(O)c2)[C@H]1Cc1cccc(O)c1 [Enterolactone]
Localization (matrix in which the compound was identified) [1]: Plasma, milk

Kp ([2]; control diet): 11 ± 1.95 | Kp ([2]; flaxseed 10% diet): 7.81 ± 2.08 | Kp ([2]; flaxseed 15% diet): 7.57 ± 2.1 | AUC(0-t) ([2]; control diet): 19200 ± 5030 ng·h/mL | AUC(0-t) ([2]; flaxseed 10% diet): 14600 ± 1790 ng·h/mL | AUC(0-t) ([2]; flaxseed 15% diet): 13400 ± 3070 ng·h/mL | AUC(0-inf) ([2]; control diet): 19400 ± 5120 ng·h/mL | Cmax ([2]; control diet): 2950 ± 740 ng/mL | MRT ([2]; control diet): 5.35 ± 0.87 h | Tmax ([2]; control diet): 2.66 ± 0.94 h | AUC(0-inf) ([2]; flaxseed 10% diet): 14900 ± 1860 ng·h/mL | Cmax ([2]; flaxseed 10% diet): 2200 ± 350 ng/mL | MRT ([2]; flaxseed 10% diet): 5.25 ± 0.35 h | Tmax ([2]; flaxseed 10% diet): 3 ± 1 h | AUC(0-inf) ([2]; flaxseed 15% diet): 13700 ± 3130 ng·h/mL | Cmax ([2]; flaxseed 15% diet): 1840 ± 440 ng/mL | MRT ([2]; flaxseed 15% diet): 5.54 ± 0.29 h | Tmax ([2]; flaxseed 15% diet): 2.66 ± 0.94 h | Reduction of milk Cmax ([2]; group fed 15% flaxseed vs. control group): ~40% | Reduction of secretion into milk / milk residue ([2]; sheep fed flaxseed diet vs. control): 25–30% | Reduction of AUC0–24 milk-to-plasma ratio [2, 5]: 25–30% | Reduction of milk AUC0–24 [2, 5]: 25–30% | Reduction of milk Cmax [2, 5]: 25–30% | AUC(0-inf) ([3]; control diet): 1750 ± 380 ng·h/mL | Cmax ([3]; control diet): 310 ± 50 ng/mL | MRT ([3]; control diet): 4.22 ± 0.73 h | Tmax ([3]; control diet): 1.5 ± 0.5 h | AUC(0-t) ([3]; control diet): 1740 ± 370 ng·h/mL | AUC(0-inf) ([3]; flaxseed 10% diet): 1930 ± 250 ng·h/mL | Cmax ([3]; flaxseed 10% diet): 310 ± 60 ng/mL | MRT ([3]; flaxseed 10% diet): 4.77 ± 0.49 h | Tmax ([3]; flaxseed 10% diet): 1.5 ± 0.5 h | AUC(0-t) ([3]; flaxseed 10% diet): 1920 ± 260 ng·h/mL | AUC(0-inf) ([3]; flaxseed 15% diet): 1810 ± 150 ng·h/mL | Cmax ([3]; flaxseed 15% diet): 300 ± 40 ng/mL | MRT ([3]; flaxseed 15% diet): 4.95 ± 0.39 h | Tmax ([3]; flaxseed 15% diet): 1.16 ± 0.37 h | AUC(0-t) ([3]; flaxseed 15% diet): 1790 ± 150 ng·h/mL
Compound: CN1C[C@@H]2C[C@H]1CN2c1cc2c(cc1F)c(=O)c(C(=O)O)cn2C1CC1 [danofloxacin]
Reduction of danofloxacin residue in ovine milk [4]: 50%

Compound: Enterolactone-glucuronide
Localization (matrix in which the compound was identified) [1]: Plasma

Compound: Enterolactone-sulfate
Localization (matrix in which the compound was identified) [1]: Plasma
